Here are results for one compound from patent publication EP0887348A1, “Bis-Indole derivatives having antimetastatic activity, a process for their preparation and pharmaceutical compositions containing them” (Boehringer Mannheim Italia S.p.A., priority 1997, dated 1998).

The structures appear in SMILES notation.

The test system of the data set is Lewis Lung (3LL) murine carcinoma. Type of data set: in vivo, Female mice C57BL/6N. The procedure: The "in vivo" testing was performed against the Lewis Lung (3LL) murine carcinoma according to the following protocol.
Female mice C57BL/6N were inoculated intrafootpad with tumor fragments at day 0. At day 11 the mice were anesthetized and their tumors removed surgically proximal to the popliteale limph nodes. Animals were treated intraperitoneally with the compounds of the invention from one day after surgery until the end of the experiment, day 22 (post-surgery treatment at days 12-15, 18-22). All the compounds were suspended in 0.5% methylcellulose. The mean number of the pulmonary metastases and the mean weight thereof were determined. The toxicity of the compounds of the invention at the administered dosage was also checked, as number of deaths/total no. of treated mice by the end of the experiment.

Consider `c1cncc(C(c2c[nH]c3ccccc23)c2c[nH]c3ccccc23)c1` [example 1, 3-[bis(indol-3-yl)methyl]pyridine], for which the Toxicity (mouse, in vivo, ip, 200 mg/kg/day) was 0/9. Further, for the setting “pulmonary metastases, 200 mg/kg/day intraperitoneally, post-surgery treatment day 12-15, 18-22 after tumor injection, control 197.6 (55.0)”, the “Mean weight (mg) of metastases (S.D.)” value was 99.2 (63.5) mg. Besides, the “Mean No. of metastases (S.D.)” value (pulmonary metastases, 200 mg/kg/day intraperitoneally, post-surgery treatment day 12-15, 18-22 after tumor injection, suspended in 0.5% methylcellulose, control 65.9 (11.7)) is listed as 31.4 (14.0).
